No end group written: not given here.
Legend:
[1] = tested on: recombinant endo-α-GalNAc-ase; settings: substance as sugar source 1.2 mM, TLC
Method: The reaction system for measurement of transglycosylation activity was carried out by using the sugar chain donor Galβ1-3GalNAcα1-pNP at a final concentration of 2 mM, the acceptor 1-alkanol at a final concentration of 15% (v/v) and the purified enzyme (recombinant endo-α-GalNAc-ase) at a final concentration of 6.8 units/L in a 50 mM potassium phosphate buffer, pH 7.0.

[2] = tested on: recombinant endo-α-GalNAc-ase; test: Transglycosylation into polypeptide (HPLC, MALDI-TOF-MS); assay type: biochemical, Bifidobacterium longum JCM1217; settings: donor Galβ1-3GalNAcα1-pNP, sodium phosphate buffer pH 6, 37° C., one hour, HPLC product peak
Method: First, an enzymatic reaction of recombinant endo-α-GalNAc-ase purified in (7) was performed with Galβ1-3GalNAcα1-pNP as the sugar chain donor and peptide-T (see SEQ ID: 16), PAMP-12 (an amino acid sequence shown in SEQ ID: 17 with an amino group attached at C-end of the sequence) and bradykinin (see SEQ ID: 18) as the sugar chain acceptor.
That is, 10 μl of Galβ1-3GalNAcα1-pNP, 6 μl solution of each polypeptide as the acceptor and 1.5 μl of NaP (sodium phosphate) buffer (500 mM, pH 6) were mixed. The sugar chain donor, Galβ1-3GalNAcα1-pNP was used at a concentration of 10 mM, and for the peptide solution, each of 50 mM peptide-T, 50 mM bradykinin, and 10 mM PAMP-12 was used. A solution obtained by mixing was warmed up to 37° C., subsequently 2.5 μl of endo-α-GalNAc-ase (1.55 unit/ml) was added thereto, which was then incubated in a water bath at 37° C. for one hour. Subsequently, the enzyme was inactivated by boiling for 3 to 5 minutes.
Each reaction solution obtained in the aforementioned enzymatic reaction was applied to an HPLC analysis, and reaction products were analyzed and fractionated. […] UV (wavelength 214 nm) spectra were detected.
Detected results of each reaction solution for peptide-T, PAMP-12 and bradykinin are shown in FIGS. 5A, 5B and 5C, respectively.
The fractions fractionated by the aforementioned HPLC were analyzed by MALDI-TOF-MS. […]
Target sequence in this assay (as listed by the source): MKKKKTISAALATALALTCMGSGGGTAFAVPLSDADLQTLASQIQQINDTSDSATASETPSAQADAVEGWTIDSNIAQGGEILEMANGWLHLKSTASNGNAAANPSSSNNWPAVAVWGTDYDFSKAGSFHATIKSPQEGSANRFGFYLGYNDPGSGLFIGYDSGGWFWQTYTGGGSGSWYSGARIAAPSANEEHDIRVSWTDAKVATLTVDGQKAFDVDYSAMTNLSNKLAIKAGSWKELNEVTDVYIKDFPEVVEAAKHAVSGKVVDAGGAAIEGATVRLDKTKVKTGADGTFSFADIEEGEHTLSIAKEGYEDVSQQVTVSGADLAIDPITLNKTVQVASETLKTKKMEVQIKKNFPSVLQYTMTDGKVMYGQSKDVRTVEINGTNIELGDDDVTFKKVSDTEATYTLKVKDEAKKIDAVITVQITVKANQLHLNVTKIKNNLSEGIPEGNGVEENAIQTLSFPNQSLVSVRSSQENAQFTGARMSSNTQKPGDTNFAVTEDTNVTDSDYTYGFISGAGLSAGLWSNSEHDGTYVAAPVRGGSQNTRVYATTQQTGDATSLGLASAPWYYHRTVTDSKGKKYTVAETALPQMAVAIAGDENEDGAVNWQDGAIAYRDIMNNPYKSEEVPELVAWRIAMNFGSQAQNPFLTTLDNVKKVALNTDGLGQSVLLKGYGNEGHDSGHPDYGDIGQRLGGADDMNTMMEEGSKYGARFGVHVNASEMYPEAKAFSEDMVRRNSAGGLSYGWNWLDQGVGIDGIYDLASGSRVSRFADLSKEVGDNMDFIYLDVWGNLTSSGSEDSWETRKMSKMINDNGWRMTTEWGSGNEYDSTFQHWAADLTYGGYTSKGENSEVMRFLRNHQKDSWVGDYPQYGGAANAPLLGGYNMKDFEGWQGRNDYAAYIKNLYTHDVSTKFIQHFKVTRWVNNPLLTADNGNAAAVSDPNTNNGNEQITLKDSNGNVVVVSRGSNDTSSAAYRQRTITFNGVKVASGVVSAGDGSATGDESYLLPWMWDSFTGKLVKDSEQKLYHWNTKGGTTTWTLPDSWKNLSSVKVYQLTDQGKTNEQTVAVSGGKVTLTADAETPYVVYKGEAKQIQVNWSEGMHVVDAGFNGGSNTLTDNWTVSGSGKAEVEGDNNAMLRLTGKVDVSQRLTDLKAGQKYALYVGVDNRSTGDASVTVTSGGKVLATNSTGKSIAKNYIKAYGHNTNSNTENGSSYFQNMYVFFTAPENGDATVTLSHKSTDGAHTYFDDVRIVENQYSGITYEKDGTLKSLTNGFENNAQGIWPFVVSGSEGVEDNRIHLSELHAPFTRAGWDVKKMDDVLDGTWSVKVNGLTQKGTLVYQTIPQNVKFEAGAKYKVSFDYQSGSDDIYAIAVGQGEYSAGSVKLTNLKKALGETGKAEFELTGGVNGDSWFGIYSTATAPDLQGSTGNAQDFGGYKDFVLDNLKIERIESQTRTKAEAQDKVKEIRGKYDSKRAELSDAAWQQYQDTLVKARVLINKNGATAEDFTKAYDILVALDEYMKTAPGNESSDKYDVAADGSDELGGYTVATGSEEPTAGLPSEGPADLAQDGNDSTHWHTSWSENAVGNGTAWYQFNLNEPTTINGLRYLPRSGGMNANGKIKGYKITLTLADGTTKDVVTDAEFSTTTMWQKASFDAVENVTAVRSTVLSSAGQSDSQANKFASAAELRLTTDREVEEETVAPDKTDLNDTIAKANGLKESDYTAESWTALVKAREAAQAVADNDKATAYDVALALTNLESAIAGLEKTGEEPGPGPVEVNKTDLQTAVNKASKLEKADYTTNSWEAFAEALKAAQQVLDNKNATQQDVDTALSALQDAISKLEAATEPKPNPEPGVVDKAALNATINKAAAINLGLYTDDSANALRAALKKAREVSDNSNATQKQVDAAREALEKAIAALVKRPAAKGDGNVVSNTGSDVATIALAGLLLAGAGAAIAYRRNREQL

Compound	Formation of product spot in reaction with methanol as acceptor (transglycosylation vs reverse hydrolysis) [1]	Transfer of disaccharide (Gal-GalNAc) to the peptide acceptor [2]
CC(=O)N[C@H]1C(O)O[C@H](CO)[C@H](O)[C@@H]1O[C@@H]1O[C@H](CO)[C@H](O)[C@H](O)[C@H]1O (stereo partly drawn) [Galβ1-3GalNAc, galactosyl β1→3N-acetylgalactosamine]	not formed	–
CC(=O)N[C@H]1[C@@H](Oc2ccc([N+](=O)[O-])cc2)O[C@H](CO)[C@H](O)[C@@H]1O[C@@H]1O[C@H](CO)[C@H](O)[C@H](O)[C@H]1O [Galβ1-3GalNAcα1-pNP, galactosyl β1→3N-acetylgalactosaminyl α1-p-nitrophenol, reference compound]	formed	–
PAMP-12: amino acid sequence shown in SEQ ID: 17 with an amino group attached at C-end; sugar chain acceptor (FRKKWNKWALSR-NH2; listed as Homo sapiens)	–	disaccharide (Gal-GalNAc) had been transferred
